We go through five molecules from patent publication US11103158B2, “Pure non-invasive method for identification of organ diseases or impaired organ function by investigation of marker substances in exhaled air stimulated by inhaled marker substances” (FREIE UNIVERSITÄT BERLIN, priority 2015, dated 2021).

The subject of one data set is CYP 2C9 and CYP 2C19. To be noted: reported by Mizayawa et al.; cited from earlier work.
Data set [1] can be described thus: PTR-MS of volatile organic compounds in exhaled breath of vegan persons, volunteers and liver patients, also grouped by LiMAx value.
For data set [2], the system named is mammary, liver, lung, and other cancers. To be noted: literature reports (Mizayawa et al.; Gold 1997); cited from earlier work.
The conditions of data set [3]: in vivo.

Read-outs that look alike come from different tables or passages of the source.

On to `C=C(C)[C@H]1CC=C(C)CC1` [limonene], for which the metabolization by enzymes result in the data set on CYP 2C9 and CYP 2C19 is listed as “metabolized by enzymes of the Cytochrome P450 family”. The “concentration in exhaled breath (m/z 137)” value in data set [1] (comparison of the three groups (vegan diet, normal diet, liver disease patients), taking error bars into account, FIG. 1A) is “almost identical”. For the same molecule, the “concentration in the expiratory air (m/z 137)” value in data set [1] (patients with LiMAx value below 176 compared to LiMAx 176 to 351 or above 351, FIG. 1B) is on record as “significantly increased”.
For `C=C(C)[C@@H]1CC=C(CO)CC1` [perillyl alcohol], in data set [2], the “chemopreventive activity / cancer prevention” value is “prevent mammary, liver, lung, and other cancers”.
As for `CC1=CCC2CC1C2(C)C` (stereo not drawn) [α-pinene], in data set [3], the “concentration in exhaled breath (m/z 137)” value was “almost identical” and the “concentration in the expiratory air (m/z 137)” value was “significantly increased”.
The matching figures for `C=C1CCC2CC1C2(C)C` (stereo not drawn) [β-pinene]: “almost identical” and “significantly increased”.
The matching figures for γ-pinene: “almost identical” and “significantly increased”.
